Laboratory results: patent US20170150719A1, “FUNGICIDAL PYRAZOLES AND THEIR MIXTURES” (E I DU PONT DE NEMOURS AND COMPANY, priority 2010, published 2017)

Tests used:
[1] = test system: Septoria tritici; assay: Test F: wheat leaf blotch, preventive spray on wheat seedlings, visual disease rating; type: in vivo; settings: Zymoseptoria tritici, 100 = 100% disease control, 0 = no disease control relative to the controls
Description: (§1) A hyphen (-) indicates no test results.

[2] = test system: Puccinia recondita f. sp. tritici; assay: Test G: wheat leaf rust, spray after inoculation (curative) on wheat seedlings, visual disease rating; type: in vivo; settings: 100 = 100% disease control
Description: as §1

[3] = test system: Puccinia recondita f. sp. tritici; assay: Test H: wheat leaf rust, preventive spray on wheat seedlings, visual disease rating; settings: read-out: Test H rating (disease control), wheat leaf rust, sprayed the day before inoculation; 100 = 100% disease control, 0 = no disease control
[4] = test system: Botrytis cinerea; assay: Test A: tomato Botrytis, preventive spray on tomato seedlings, visual disease rating; settings: Botrytis cinerea, in Solanum lycopersicum, read-out: Test A rating (disease control), tomato Botrytis; 100 = 100% disease control, 0 = no disease control relative to the controls
[5] = test system: Alternaria solani; assay: Test B: tomato early blight, preventive spray on tomato seedlings, visual disease rating
Description: (§2) General protocol for preparing test suspensions for Tests A-I: the test compounds were first dissolved in acetone in an amount equal to 3% of the final volume and then suspended at the desired concentration (in ppm) in acetone and purified water (50/50 mix by volume) containing 250 ppm of the surfactant Trem® 014 (polyhydric alcohol esters). The resulting test suspensions were then used in Tests A-I. Each test was conducted in triplicate, and the results were averaged. Spraying a 200 ppm test suspension to the point of run-off on the test plants was the equivalent of a rate of about 800 g/ha. Unless otherwise indicated, the rating values indicate a 200 ppm test suspension was used. (An asterisk “*” next to the rating value indicates a 40 ppm test suspension was used.)
The test suspension was sprayed to the point of run-off on tomato seedlings. The following day the seedlings were inoculated with a spore suspension of Alternaria solani (the causal agent of tomato early blight) and incubated in a saturated atmosphere at 27° C. for 48 h, and then moved to a growth chamber at 20° C. for 5 days, after which time visual disease ratings were made.

[6] = test system: Blumeria graminis f. sp. tritici; assay: Test I: wheat powdery mildew, preventive spray on wheat seedlings, visual disease rating; settings: Blumeria graminis, in Triticum aestivum, read-out: Test I rating (disease control), wheat powdery mildew; 100 = 100% disease control, 0 = no disease control relative to the controls
[7] = test system: Septoria nodorum; assay: Test E: Septoria glume blotch, preventive spray on wheat seedlings, visual disease rating; settings: 100 = 100% disease control
Description: as §2
The test suspension was sprayed to the point of run-off on wheat seedlings. The following day the seedlings were inoculated with a spore suspension of Septoria nodorum (the causal agent of Septoria glume blotch) and incubated in a saturated atmosphere at 24° C. for 48 h, and then moved to a growth chamber at 20° C. for 9 days, after which time visual disease ratings were made.

[8] = test system: Phytophthora infestans; assay: whole plant or invertebrate; type: in vivo; settings: tomato late blight, preventive spray; 100 = 100% disease control; rating without asterisk
[9] = Single oral dose pharmacokinetics in rats, plasma and fat by LC/MS (fat:plasma distribution); type: in vivo; settings: single oral dose via gavage, compared to corresponding compounds wherein R^2 is other than H
Description: The pharmacokinetic properties of compounds of Formula 1 can be measured using a wide variety of assay protocols known in the science of pharmacology. In one illustrative method involving a single oral dose, three male and three female rats receive a single dose of a test substance via oral gavage. Approximately 0.25 mL of blood is collected via tail vein immediately prior to dosing, and then at 0.25, 0.5, 1, 2, 4, 8, 12, 24 h and every 24 h thereafter until sacrifice. At sacrifice, fat is also collected to determine the fat:plasma ratio at sacrifice. Blood is collected into tubes that contain ethylenediaminetetracetic acid (EDTA) and centrifuged at 2500×g in order to separate plasma from blood cells. The plasma is then extracted by protein precipitation using, for example, acetonitrile and a protein precipitation plate (e.g., Strata Impact Protein Precipitation Plate, part number CEO-7565 of Phenomenex, Torrance, Calif., U.S.A.) following directions provided for the plate. Alternatively, the plasma is extracted just with acetonitrile, vortexed (i.e. mixed using a vortex mixer), and centrifuged to pellet the proteins. After removal of the proteins, the plasma is analyzed for parent compound and/or metabolites by liquid chromatography-mass spectrometry (LC/MS). The fat is homogenized and extracted by an organic solvent such as acetonitrile. The extract is then analyzed for parent compound and/or metabolites by LC/MS. The plasma pharmacokinetic data is then analyzed using nonlinear modeling software (e.g., WinNonlin™ from Pharsight, Cary, N.C., U.S.A.) to determine half-life of the administered compound in plasma, the time after administration when the maximum plasma concentration is reached (Tmax), the maximum plasma concentration (Cmax) and the area under the plasma concentration curve (AUC). As analysis of fat requires rat sacrifice, fat data is obtained at single time points (i.e. the time of rat sacrifice). However, by using multiple rats sacrificed after different intervals from time of dosing, such parameters as Cmax for fat are determined.

[10] = test system: Septoria tritici; assay: Tests N1 and N2: growth inhibition of Septoria tritici on solid medium in 96-well plates, absorbance at 600 nm, observed and Colby expected; type: cell-based; settings: Zymoseptoria tritici
Description: Tests N1 and N2 involved evaluation of mixtures of Compound 81 with 2-[(3-bromo-8-methyl-6-quinolinyl)oxy]-N-(1,1-dimethyl-2-propyn-1-yl)-2-(methylthio)acetamide (Compound A1) and 2-[(3-bromo-6-quinolinyl)oxy]-N-(1,1-dimethylethyl)butanamide (Compound A2), respectively, for inhibiting the growth of Septoria tritici (the causal agent of wheat leaf blotch). The general protocol for preparing test compositions was as follows. Compound 81 (Tests N1 and N2), Compound A1 (Test N1) and Compound A2 (Test N2) were obtained as unformulated, technical-grade materials. Unformulated test compounds were first dissolved in DMSO at the appropriate concentration to provide the desired concentration (in μM) after mixing with the fungal growth medium in the wells of 96-well plates containing 200 μL fungal growth medium per well. The ranges of compound concentrations were chosen to span a range of inhibitory activity from 0 to near 100% to identify any synergistic action when Septoria tritici was treated with compounds added in combination. The DMSO solutions of the test compounds were added to the wells prior to addition of the fungal growth medium.
The fungal growth solid medium was prepared by forming an aqueous mixture containing dipotassium hydrogen phosphate (3.0 g/L), potassium dihydrogen phosphate (4.0 g/L), sodium chloride (0.5 g/L), ammonium chloride (1.0 g/L), magnesium sulfate heptahydrate ([…]) and calcium chloride dihydrate (0.01 g/L), also containing 1 mL/L of a trace element solution (manganese sulfate hydrate (0.1 mg/mL), zinc sulfate heptahydrate (0.2 mg/mL), copper(II) sulfate pentahydrate (0.2 mg/mL), iron(II) sulfate heptahydrate (0.2 mg/mL), sodium molybdate dihydrate (0.1 mg/mL), cobalt(II) sulfate heptahydrate (0.06 mg/mL), boric acid (0.08 mg/mL)), and supplemented with 50 μL/L of a biotin stock solution (0.1 mg/mL). The pH was adjusted to 6.8 with aqueous 1 M sodium carbonate solution. The mixture was further supplemented with 1 g/L of yeast extract, and GELRITE gellan gum (Kelco) (4 g/L) was added. Sufficient water was added to bring the volume to 90% of final volume (e.g., 900 mL volume for preparation of 1 L of fungal growth medium). The mixture was autoclaved. On cooling to 60° C., 100 mL/L of aqueous dextrose solution (10 g/L), 500 μL/L of aqueous ampicillin solution (100 mg/mL) and 500 μL/L of rifampicin solution (10 mg/mL in DMSO) were added to provide the final volume of fungal growth medium, which was then dispensed while still warm using a microliter pipette to the wells of the 96-well plates. The dispensed fungal growth medium in each well was agitated using the tip of the dispensing pipette to mix it with the DMSO solution containing the test compounds.
After the fungal growth medium in the wells had cooled to room temperature and solidified, the top surface of the growth medium in each well was inoculated with 20 μL of a suspension of fungus containing 8×10^4 cells. Following a 2 h period of drying in a sterile hood, plates were placed in a dark incubator at 25° C. for 5 d.
Fungal growth was assessed on a plate reader set to measure absorbance of 600 nm light. The percent growth inhibition observed (Obsd.) in Tests N1 and N2, as well as the percent growth inhibition expected (Exp.) from calculation using the Colby equation, are listed in Tables L and M, respectively.

Structure (SMILES): Cc1nn(C)c(Nc2ccc(Cl)cc2F)c1-c1c(F)cc(C#N)cc1F [Compound 40, 4-[5-[(4-chloro-2-fluorophenyl)amino]-1,3-dimethyl-1H-pyrazol-4-yl]-3,5-difluorobenzonitrile]
- pest or weed control at 200 µg/mL [1]: 100%
- pest or weed control at 200 µg/mL ([2]; sprayed after inoculation, 0 = no disease control): 63%
- melting point: 93 to 95 °C
- pest or weed control at 200 µg/mL [3]: 100%
- pest or weed control at 200 µg/mL [4]: 99%
- pest or weed control at 200 µg/mL ([5]; Alternaria solani, in Solanum lycopersicum, read-out: Test B rating (disease control)): 99%
- pest or weed control at 200 µg/mL [6]: 100%
- pest or weed control at 200 µg/mL ([7]; Parastagonospora nodorum, in Triticum aestivum, read-out: Test E rating (disease control), Septoria glume blotch, 0 = no disease control relative to the controls): 100%

Structure (SMILES): Cc1nn(C)c(Nc2c(F)cc(F)cc2Cl)c1-c1ccc(C#N)cc1F [Compound 238, 4-[5-[(2-chloro-4,6-difluorophenyl)amino]-1,3-dimethyl-1H-pyrazol-4-yl]-3-fluorobenzonitrile]
- melting point: 177 to 179 °C

Structure (SMILES): Cc1nn(C)c(Nc2c(F)cccc2Cl)c1-c1ccc(F)cc1Cl [Compound 239, 4-(2-chloro-4-fluorophenyl)-N-(2-chloro-6-fluorophenyl)-1,3-dimethyl-1H-pyrazol-5-amine]
- Test C rating (% disease control) [8]: 0%
- Test G rating (% disease control) ([2]; spray after inoculation, rating without asterisk): 100%
- distribution into fat [9]: significantly diminished distribution into fat
- melting point: 166 to 168 °C
- Test B rating (% disease control) ([5]; tomato early blight, preventive spray, 100 = 100% disease control, rating without asterisk): 100%
- Test E rating (% disease control) ([7]; Septoria glume blotch on wheat, preventive spray, rating without asterisk): 99%

Structure (SMILES): Cc1nn(C)c(Nc2c(F)cccc2Cl)c1-c1ccc(F)cc1Br [Compound 240, 4-(2-Bromo-4-fluorophenyl)-N-(2-chloro-6-fluorophenyl)-1,3-dimethyl-1H-pyrazol-5-amine]
- distribution into fat [9]: significantly diminished distribution into fat

Structure (SMILES): Cc1nn(C)c(Nc2c(F)cccc2Br)c1-c1ccc(F)cc1Cl [Compound 241, N-(2-bromo-6-fluorophenyl)-4-(2-chloro-4-fluorophenyl)-1,3-dimethyl-1H-pyrazol-5-amine]
- distribution into fat [9]: significantly diminished distribution into fat

Structure (SMILES): Cc1nn(C)c(Nc2c(F)cccc2Br)c1-c1ccc(F)cc1Br [Compound 244, 4-(2-bromo-4-fluorophenyl)-N-(2-bromo-6-fluorophenyl)-1,3-dimethyl-1H-pyrazol-5-amine]
- melting point: 154 to 156 °C

Structure (SMILES): Cc1nn(C)c(Nc2c(F)cccc2Br)c1-c1ccc(F)cc1F [Compound 245, N-(2-bromo-6-fluorophenyl)-4-(2,4-difluorophenyl)-1,3-dimethyl-1H-pyrazol-5-amine]
- melting point: 149 to 151 °C

Structure (SMILES): Cc1nn(C)c(Nc2c(F)cccc2Br)c1-c1c(F)cccc1F [Compound 247, N-(2-bromo-6-fluorophenyl)-4-(2,6-difluorophenyl)-1,3-dimethyl-1H-pyrazol-5-amine]
- melting point: 127 to 129 °C

Structure (SMILES): C#CC(C)(C)NC(=O)C(Oc1cc(C)c2ncc(Br)cc2c1)SC (stereo not drawn) [Compound A1, 2-[(3-bromo-8-methyl-6-quinolinyl)oxy]-N-(1,1-dimethyl-2-propyn-1-yl)-2-(methylthio)acetamide, reference compound]
- inhibition at 0.00032 µM ([10]; Compound A1 alone 0.00032 μM, read-out: % inhibition Obsd. (Test N1)): 3%
- inhibition at 0.0016 µM ([10]; Compound A1 alone 0.0016 μM, read-out: % inhibition Obsd. (Test N1)): 5%
- inhibition at 0.008 µM ([10]; Compound A1 alone 0.008 μM, read-out: % inhibition Obsd. (Test N1)): 14.5%
- inhibition at 0.04 µM ([10]; Compound A1 alone 0.04 μM, read-out: % inhibition Obsd. (Test N1)): 97%
- inhibition at 0.2 µM ([10]; Compound A1 alone 0.2 μM, read-out: % inhibition Obsd. (Test N1)): 98%

Structure (SMILES): CCC(Oc1ccc2ncc(Br)cc2c1)C(=O)NC(C)(C)C (stereo not drawn) [Compound A2, 2-[(3-bromo-6-quinolinyl)oxy]-N-(1,1-dimethylethyl)butanamide, reference compound]
- inhibition at 0.032 µM ([10]; Compound A2 alone 0.032 μM, read-out: % inhibition Obsd. (Test N2)): 0%
- inhibition at 0.16 µM ([10]; Compound A2 alone 0.16 μM, read-out: % inhibition Obsd. (Test N2)): 6.5%
- inhibition at 0.8 µM ([10]; Compound A2 alone 0.8 μM, read-out: % inhibition Obsd. (Test N2)): 11.5%
- inhibition at 4 µM ([10]; Compound A2 alone 4 μM, read-out: % inhibition Obsd. (Test N2)): 95%
- inhibition at 20 µM ([10]; Compound A2 alone 20 μM, read-out: % inhibition Obsd. (Test N2)): 96%
